# Experimental data: PMC10901353, “Identification of a potent and selective LAPTc inhibitor by RapidFire-Mass Spectrometry, with antichagasic activity” (PLOS Neglected Tropical Diseases, 2024)
# Values joined by “and” are separate entries in the source; they are usually repeats but may differ in a detail not shown here. Identical values can stand only once. Like-named read-outs stand apart in the source and are kept apart here.
# How the values were obtained:
# [1] = tested on: intracellular T. cruzi amastigotes; experiment: T. cruzi intracellular assay (high-content imaging, infected Vero cells); type: cell-based, Trypanosoma cruzi; design: Max Effect (T. cruzi): unit not given here; details: for EC50 / Emax: Trypanosoma cruzi, Vero; for Emax: read-out: Max Effect (T. cruzi)
# Description: T. cruzi parasite, TcI strain Silvio X10/7 subclone A1 [34] was maintained in culture as previously described. Parasites were maintained as amastigotes by passaging on a weekly basis in Vero cells. Culture maintenance infections were carried out at an MOI (multiplicity of infection) of 1.5.
# (§1) This assay was performed as described with the only modification that treatment was 96 h instead of 72 h. Briefly, Vero cells were infected overnight with tissue culture derived T. cruzi trypomastigotes in T225 tissue culture flasks (MOI 5). Any remaining free trypomastigotes were washed away with serum free MEM and the infected Vero cells were harvested by trypsinisation. Compounds (250 nL in DMSO) were dispensed using LabCyte ECHO (Beckman Coulter Life Sciences, USA) into each well of Corning black flat bottomed 384-well plates (Corning, USA). […] The infected Vero cells were then plated into the plates containing the compounds, at 4,000 cells per well in MEM media with 1% FCS. After 96 h incubation at 37°C in presence of 5% CO2, the plates were fixed with 4% formaldehyde for 20 min at room temperature and stained with 5 μg/mL Hoechst 33342. The plates were imaged on a Perkin Elmer Operetta high-content imaging system using a 20× objective. Images were analyzed using the Columbus system (Perkin Elmer). The algorithm first identified the Vero nuclei followed by demarcation of the cytoplasm and identification of intracellular amastigotes. This algorithm reported percent infected Vero cell and total number of Vero cells. All potency determinations were carried out in at least three independent replicates and are reported as pEC50 +/- standard deviation. pEC50 = -log(EC50[M]).
# [2] = molecular target: T1, LAPTc (acidic M17 leucyl-aminopeptidase from T. cruzi) (Trypanosoma cruzi, UniProt V5BWE3); experiment: High-throughput single point screening for LAPTc inhibitors by RapidFire-MS; type: biochemical; details: primary screen, 30 μM, single replicate; read-out: Percent Inhibition
# Description: (§2) This assay was previously described. The assay was performed in 384-well clear F-bottom polypropylene plates with a final reaction volume of 15 μL. The reaction mixture contained 7.5 μL LAPTc in 50 mM Tris-HCl, pH 7.5, 0.005% NP-40 and 7.5 μL LSTVIVR peptide substrate (Cambridge Research Biochemicals, Billingham, UK) in the same buffer was added to start the reaction. The reaction was performed at room temperature for 40 min and then stopped with 85 μL 1% formic acid containing 0.15 mg/mL STVIVR* internal standard (Cambridge Research Biochemicals, Billingham, UK).
# Single point screening of a library of 3329 compounds was performed in 384-well clear plates (Greiner 781101) at room temperature. Test compounds (45 nL in DMSO) were transferred to assay plates by an ECHO 550 acoustic dispenser (Labcyte). LAPTc was tested at 3 nM with 150 μM (approximately the value of the apparent Michaelis-Menten constant -appKM- [16]) LSTVIVR peptide substrate in a 40 min reaction. Before addition of substrate, LAPTc was preincubated with 45 nL compounds or DMSO for 15 min. Compounds, dissolved in DMSO, were tested at 30 μM. Controls without compound (the same volume of DMSO, 0% inhibitory effect) and without enzyme and compound (100% inhibitory effect) were prepared. The experiment was performed without replicates. The remaining experimental conditions were maintained as previously described. Data were processed and analysed through ActivityBase XE (IDBS). The selection criterion for hits in this single point screen was percent inhibition larger than the mean plus three standard deviations. All primary screening data are available in ChEMBL (see Data Availability statement).
# [3] = Cytotoxicity assay on human HepG2 cells (resazurin); type: cell-based; details: human, 72 h
# HepG2 cells = experiment: as above; type: cell-based; details: for Max Effect (HepG2) / pEC50 (HepG2): individual replicates
# [4] = Cytotoxicity against infected Vero host cells in T. cruzi intracellular assay; type: cell-based, African green monkey; design: Max Effect (Vero): unit not given here; details: African green monkey, infected Vero host cells, 96 h, read-out: pCC50 (Vero) +/- StDev (converted)
# Description: (§3) Briefly, these cells were maintained at 37°C and 5% CO2 in MEM supplemented with 10% FCS, sub-culturing every 2–3 days at a ratio of 1:5 after 5 min treatment with Trypsin-EDTA (Gibco).
# as §1, with “After 96 h incubation at 37°C in presence of 5% CO2, the plates were fixed with 4% formaldehyde for 20 min at room temperature and stained with 5 μg/mL Hoechst 33342.” left out
# Vero cells = experiment: as above; type: cell-based, African green monkey; design: Max Effect (Vero): unit not given here; details: for Max Effect (Vero) / pEC50 (Vero): individual replicates
# Description: as §3
# as §1, with “After 96 h incubation at 37°C in presence of 5% CO2, the plates were fixed with 4% formaldehyde for 20 min at room temperature and stained with 5 μg/mL Hoechst 33342.” left out
# [5] = molecular target: T1, LAPTc (acidic M17 leucyl-aminopeptidase from T. cruzi); experiment: Dose-response studies for LAPTc inhibition by RapidFire-MS; type: biochemical; details: for Emax: read-out: Maximum Effect; for Hit Confirmation: whether primary screen hit confirmed in potency experiment
# Description: as §2
# To generate half-maximum inhibitory concentration (IC50) data for LAPTc, 10-point dose-response curves with 100 μM as highest concentration and 1:2 dilution in DMSO (0.195–100 μM range) were prepared in 384 well plates. All other experimental conditions were as described above. All IC50 curve fitting was performed by four-parameter logistic dose-response curve fit using ActivityBase XE (IDBS). At least three replicates were generated for each hit compound.
# [6] = 96 h, four independent experiments, read-out: pEC50 (T. cruzi) +/- StDev (converted)
# [7] = individual replicates, read-out: pEC50 (T. cruzi) (converted)
# [8] = HepG2 cells, two independent experiments, read-out: pCC50 (HepG2) (converted)
# [9] = Vero cells infected with T. cruzi
# [10] = Initial hit confirmation, single replicate
# [11] = Initial hit confirmation, single replicate, read-out: pIC50 (converted)
# [12] = Replicate data generation, individual replicates
# [13] = Replicate data generation, individual replicates, read-out: pIC50 (converted)
# [14] = average of four independent replicates, read-out: pIC50 +/- StDev (LAPTc) (converted)
# T1 sequence (V5BWE3 entry or part of it): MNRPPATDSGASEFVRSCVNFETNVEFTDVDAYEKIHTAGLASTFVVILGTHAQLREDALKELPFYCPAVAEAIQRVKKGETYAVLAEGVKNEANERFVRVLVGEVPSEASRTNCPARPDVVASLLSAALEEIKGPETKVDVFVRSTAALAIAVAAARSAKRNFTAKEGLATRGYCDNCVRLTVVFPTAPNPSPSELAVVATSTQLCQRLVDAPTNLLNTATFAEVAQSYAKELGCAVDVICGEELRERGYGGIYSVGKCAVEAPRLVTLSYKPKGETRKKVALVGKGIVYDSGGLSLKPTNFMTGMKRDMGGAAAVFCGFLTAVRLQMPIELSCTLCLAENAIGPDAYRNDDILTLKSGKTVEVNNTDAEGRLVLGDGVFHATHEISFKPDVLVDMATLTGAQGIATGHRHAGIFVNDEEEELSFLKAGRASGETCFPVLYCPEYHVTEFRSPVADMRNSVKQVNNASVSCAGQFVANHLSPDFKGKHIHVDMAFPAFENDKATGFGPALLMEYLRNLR
Compound,"EC50 [1, 6]",Emax ([1]; individual replicates),"EC50 [1, 7]",Max Effect (T. cruzi) ([1]; individual replicates),inhibition at 30 µM [2],"CC50 at 72 h [3, 8]",Max Effect (HepG2) (HepG2 cells),pEC50 (HepG2) (HepG2 cells),"CC50 at 96 h [4, 9]",Max Effect (Vero) (Vero cells),pEC50 (Vero) (Vero cells),"Hill Slope [5, 10]","Emax [5, 10]","IC50 [5, 11]","Hill Slope [5, 12]","Maximum Effect [5, 12]","Emax [5, 12]","IC50 [5, 13]",Hit Confirmation [5],"IC50 [5, 14]",further results
Cn1ccnc1C(NS(=O)(=O)c1ccc(C#N)cc1)c1cccc(F)c1 (stereo not shown) [Compound 8],> 50.1 µM,29%,> 50.1 µM,31 and 26 and 25,49%,> 100 µM,6.44 and 10,< 4.0,> 50.1 µM,18 and 29 and 34 and 32,< 4.3,1.0,89%,12.6 µM,1.5 and 1.6 and 1.3,82%,79%,12.6 µM,confirmed,–,–
CCCS(=O)(=O)c1ccc(NS(=O)(=O)c2sc3ccc(Cl)cc3c2C)cc1 [Compound 24],14.8 µM,–,–,100 and 75 and 105 and 84,29%,> 100 µM,-2 and -0.697,< 4.0,11.5 µM,92 and 90 and 88 and 91,4.9 and 5.0,2.4,96%,31.6 µM,2.4 and 2.3 and 2.6,–,99%,12.6 µM and 15.8 µM,confirmed,17.8 µM,pEC50 (T. cruzi) ([1]; individual replicates): 4.8 and 4.7 and 5.1
Cc1ccc2nc(-c3ccc(NS(=O)(=O)c4cc(C(=O)O)c(Cl)cc4Cl)cc3)sc2c1 [Compound 5],> 50.1 µM,44%,> 50.1 µM,45,58%,> 100 µM,4.7 and 1.78,< 4.0,33.1 µM,71 and 82 and 77,4.4 and 4.6 and 4.5,1.2,96%,12.6 µM,4.3 and 4.2 and 3.9,98%,99%,7.94 µM,confirmed,8.91 µM,–
O=C(CN1NS(=O)(=O)c2ccccc2C1=O)NCCc1ccccc1 [Compound 6],> 50.1 µM,11%,> 50.1 µM,20 and 14 and 16,56%,> 100 µM,3.48 and 3.47,< 4.0,> 50.1 µM,8.54 and 13 and 11 and 18,< 4.3,0.543,68%,20 µM,0.9 and 0.54 and 0.7,72% and 73%,76%,7.94 µM and 12.6 µM and 5.01 µM,confirmed,9.77 µM,–
c1ccc(Cc2ccc(OCCn3ccnc3)cc2)cc1 [Compound 13],2.14 µM,94%,1.58 µM,97 and 84 and 87,41%,43.7 µM,81 and 82,4.4,5.01 µM,95 and 94 and 89 and 87,5.3 and 5.4 and 5.2,1.3,77%,31.6 µM,0.9 and 1.3 and 1.5,74%,67%,31.6 µM and 15.8 µM,confirmed,21.9 µM,"EC50 ([1]; 96 h, read-out: EC50 (T. cruzi amastigotes)): 2 µM; pEC50 (T. cruzi) ([1]; individual replicates): 5.6 and 5.7; CC50 at 72 h ([3]; HepG2 cells, read-out: CC50 (HepG2)): 43 µM; Selectivity window based on the HepG2 data (HepG2 cells; T. cruzi vs HepG2): 20 fold; Selectivity index (fold window Tc/Vero) (Vero cells): 2.3 fold"
N#CC(=Cc1cn(Cc2ccc(C(=O)O)o2)c2ccccc12)c1nc2ccccc2[nH]1 [Compound 15],–,24%,> 50.1 µM,19 and 38,39%,–,2.23 and 3,< 4.0,–,63 and 36 and 65 and 66,4.4 and < 4.3 and 4.5 and 4.3,1.5,92%,12.6 µM,1.7 and 1.4 and 1.5,87%,88%,25.1 µM and 31.6 µM,confirmed,22.9 µM,"EC50 ([1]; 96 h, read-out: pEC50 (T. cruzi) +/- StDev (converted)): > 50.1 µM; CC50 at 72 h ([3]; two independent experiments, read-out: pCC50 (HepG2) (converted)): > 100 µM; CC50 at 96 h [4]: 38 µM"
COc1ccc(CC(=O)Nc2nc(-c3ccccn3)cs2)c(OC)c1 [Compound 12],7.08 µM,98%,7.94 µM,100 and 94,42%,> 100 µM,11 and 10,< 4.0,1 µM,46 and 49 and 51,–,2.1,84%,20 µM,1.0 and 0.9 and 1.3,67% and 73%,68%,31.6 µM and 20 µM,confirmed,25.1 µM,pEC50 (T. cruzi) ([1]; individual replicates): 5.2
